According to the NIST ThermoML archive (doi:10.1021/je500804j):
± gives the expanded uncertainty stated by the source.

Experiment: mn = molality of the nth substance listed, in mol/kg
Conditions: 101 kPa, Liquid, Alternating current cell with electrodes

CCCCCCCC[N+](C)(C)CCCCCCCCCCCC[N+](C)(C)CCCCCCCC.[Br-].[Br-] + O
Conditions	electrical conductivity [S/m]
308.15 K, m1 = 0.01941	0.3482 ± 0.0014
308.15 K, m1 = 0.02017	0.3578 ± 0.0015
308.15 K, m1 = 0.02093	0.3674 ± 0.0015
308.15 K, m1 = 0.02167	0.3751 ± 0.0015
308.15 K, m1 = 0.0224	0.3838 ± 0.0016
308.15 K, m1 = 0.02312	0.3913 ± 0.0016
308.15 K, m1 = 0.02383	0.4003 ± 0.0016
308.15 K, m1 = 0.02453	0.4069 ± 0.0016
308.15 K, m1 = 0.02522	0.4161 ± 0.0017
308.15 K, m1 = 0.02589	0.421 ± 0.0017
308.15 K, m1 = 0.02722	0.4336 ± 0.0018
308.15 K, m1 = 0.02787	0.4365 ± 0.0018
308.15 K, m1 = 0.02851	0.4424 ± 0.0018
308.15 K, m1 = 0.02956	0.4571 ± 0.0019
308.15 K, m1 = 0.03058	0.4621 ± 0.0019
308.15 K, m1 = 0.03158	0.4749 ± 0.0019
308.15 K, m1 = 0.03256	0.48 ± 0.0019
308.15 K, m1 = 0.03351	0.489 ± 0.002
308.15 K, m1 = 0.03536	0.5074 ± 0.0021
308.15 K, m1 = 0.03625	0.5158 ± 0.0021
308.15 K, m1 = 0.03712	0.5223 ± 0.0021
308.15 K, m1 = 0.03798	0.527 ± 0.0021
308.15 K, m1 = 0.03964	0.541 ± 0.0022
308.15 K, m1 = 0.04123	0.5548 ± 0.0022
308.15 K, m1 = 0.04275	0.5671 ± 0.0023
308.15 K, m1 = 0.04422	0.5777 ± 0.0023
308.15 K, m1 = 0.04563	0.5885 ± 0.0024
308.15 K, m1 = 0.04699	0.5986 ± 0.0024
308.15 K, m1 = 0.04829	0.6068 ± 0.0024
308.15 K, m1 = 0.05077	0.6251 ± 0.0025
308.15 K, m1 = 0.05194	0.6322 ± 0.0026
313.15 K, m1 = 0.00357	0.06951 ± 0.00058
313.15 K, m1 = 0.00692	0.1517 ± 0.00076
313.15 K, m1 = 0.01009	0.2177 ± 0.00095
313.15 K, m1 = 0.01308	0.2687 ± 0.0011
313.15 K, m1 = 0.01591	0.3262 ± 0.0014
313.15 K, m1 = 0.01726	0.3465 ± 0.0014
313.15 K, m1 = 0.01859	0.3645 ± 0.0015
313.15 K, m1 = 0.01987	0.3859 ± 0.0016
313.15 K, m1 = 0.02113	0.4024 ± 0.0016
313.15 K, m1 = 0.02187	0.4121 ± 0.0017
313.15 K, m1 = 0.02259	0.4248 ± 0.0017
313.15 K, m1 = 0.02331	0.4317 ± 0.0017
313.15 K, m1 = 0.02401	0.4367 ± 0.0018
313.15 K, m1 = 0.02471	0.4441 ± 0.0018
313.15 K, m1 = 0.02539	0.4521 ± 0.0018
313.15 K, m1 = 0.02606	0.4597 ± 0.0019
313.15 K, m1 = 0.02673	0.467 ± 0.0019
313.15 K, m1 = 0.02803	0.4808 ± 0.0019
313.15 K, m1 = 0.02866	0.4878 ± 0.002
313.15 K, m1 = 0.02929	0.4944 ± 0.002
313.15 K, m1 = 0.03052	0.5075 ± 0.0021
313.15 K, m1 = 0.03112	0.5138 ± 0.0021
313.15 K, m1 = 0.03171	0.5209 ± 0.0021
313.15 K, m1 = 0.0323	0.5266 ± 0.0021
313.15 K, m1 = 0.03326	0.5361 ± 0.0022
313.15 K, m1 = 0.03419	0.5442 ± 0.0022
313.15 K, m1 = 0.03511	0.5535 ± 0.0022
313.15 K, m1 = 0.036	0.5625 ± 0.0023
313.15 K, m1 = 0.03688	0.5732 ± 0.0023
313.15 K, m1 = 0.03774	0.5794 ± 0.0023
313.15 K, m1 = 0.03858	0.5898 ± 0.0024
313.15 K, m1 = 0.0394	0.5956 ± 0.0024
313.15 K, m1 = 0.041	0.6125 ± 0.0025
313.15 K, m1 = 0.04253	0.6257 ± 0.0025
313.15 K, m1 = 0.044	0.637 ± 0.0026
313.15 K, m1 = 0.04541	0.6512 ± 0.0026
313.15 K, m1 = 0.04678	0.665 ± 0.0027
313.15 K, m1 = 0.04809	0.6744 ± 0.0027
313.15 K, m1 = 0.04935	0.6838 ± 0.0028
313.15 K, m1 = 0.05057	0.6958 ± 0.0028
313.15 K, m1 = 0.05175	0.7055 ± 0.0029
318.15 K, m1 = 0.00371	0.07542 ± 0.00057
318.15 K, m1 = 0.00722	0.164 ± 0.00082
318.15 K, m1 = 0.01052	0.245 ± 0.0011
318.15 K, m1 = 0.01364	0.3143 ± 0.0013
318.15 K, m1 = 0.01659	0.3687 ± 0.0015
